From paper PMC3236199, “Development of Derivatives of 3, 3′-Diindolylmethane as Potent Leishmania donovani Bi-Subunit Topoisomerase IB Poisons” (PLoS ONE, 2011) come the findings set out here.

One test deals with LdTOP1LS. Briefly: Equilibrium (duplex oligonucleotide) cleavage assay, wild type enzyme. Type of test: biochemical, Leishmania donovani. Conditions: 20 µM, with respect to cleavable complex formed without drug with wild type enzyme. On the procedure: The 25-mer oligonucleotide 1 (5′-GAAAAAAGACTT↓AGAAAAATTTTTA-3′) was 5′-end labeled with [γ^32P] ATP and annealed with oligonucleotide 2 (5′-[…]-3′) to make a duplex oligonucleotide containing a topoisomerase I binding motif as described. Cleavage assay was carried out using 20-fold molar excess of enzymes over duplex 25-mer DNA (enzymes, 0.2 µM; DNA, 10 nM). The reactions were carried out in standard assay condition in the absence or presence of drugs at 37°C for 30 min. All the reactions were stopped by addition of SDS to a final concentration of 2% (w/v), digested with 5 µl of 1 mg/ml trypsin and analyzed by 12% denaturing polyacrylamide gel followed by autoradiography. The amount of strand cleavage in the presence of drugs was determined by densitometry of the film as described.
The effect of DIM and its derivatives on L. donovani topoisomerase I was examined by plasmid DNA cleavage assay as described. The topoisomerase reaction has three general mechanistic steps: (i) binding of enzyme to the substrate DNA, (ii) single strand breakage and subsequent strand rotation through the break leading to change in linking number, and (iii) strand religation. The second step of reaction is the introduction of a single-stranded nick in the phosphodiester bond of the DNA, through which an intact strand is allowed to pass. During this process, a covalent bond is formed between the 3′-phosphoryl group of the DNA backbone and the tyrosine residue at the active site of topoisomerase I. Topoisomerase inhibition can be achieved by prevention of enzyme-DNA binary complex formation or by stabilization of enzyme-DNA cleavable complex. To investigate the ability of DIM-derivatives to stabilize the cleavable complex formation between enzyme and oligonucleotide containing a topoisomerase IB specific binding motif we carried out plasmid cleavage assay as described previously. Cleavage assay was performed with LdTOP1LS and pHOT1 DNA containing a topoisomerase IB specific binding motif as described in ‘Materials and Methods’. […]

For test [1], the system named is DIM resistant L. donovani axenic amastigotes. The test is described as follows: Cell viability assay, DIM resistant axenic amastigotes. In kind it is cell-based. As to conditions: Leishmania donovani, 12 h, read-out: growth inhibited. On the procedure:
L. donovani strain AG83 and DIM resistant parasite DR50 promastigotes were grown at 22°C in M199 liquid media supplemented with 10% FBS as described. Axenic amastigotes were cultured in modified M199 medium (pH 5.3) supplemented with 10 mM sodium succinate, 40 mM HEPES and 25% FCS and maintained at 37°C with 5% CO2.The effect of drugs on the viability of Leishmania parasites was determined by direct microscopic counting using light microscope (40× objective) in a haemocytometer. The cells at the exponential phase were collected and transferred into 24-well plate (3.5×10^6 cells per well). The cells were then incubated for 12 h in the presence of various concentrations of DIM, DPDIM, DMDIM and DMODIM (1, 5, 10, 20 and 50 µM). For other experiments, 10^4 cells were taken and grown in presence of the respective derivatives for a period of 30 days. For each 5 day interval, a small amount of aliquots were taken out. After incubation the cells were centrifuged and cell pellet was washed with PBS (1×) twice and finally suspended in 1 ml PBS (1×). Fifty µl of aliquot was taken, mixed with 0.4% trypan blue solution and incubated for 3 min at 22°C. One drop of the mixture was transferred to haemocytometer and the clear (live) and blue (dead) cells were counted. The total number of viable cells in aliquot was calculated by multiplying the total number of viable cells by 2 (the dilution factor for trypan blue). […] Percentages of viable cells were calculated using the formula: [drawing 1]
Figure 3 Effectiveness of clearance of internalized L. donovani (AG83) from in vitro infected mouse M [drawing 3] . […] Cells were fixed, stained with Giemsa and counted under bright field microscope. […] Experiments were carried out for three times and representative results are the mean ± S.D. (B) Growth of DIM resistant L. donovani axenic amastigotes were monitored in presence of increasing concentrations (2, 5, 10, 20 and 50 µM) of DIM, DPDIM, DMDIM and DMODIM for 12 h. […] Growth of the parasites treated with the compounds was expressed as percentage of the viable promastigotes compared with that of control. […]

With `COc1ccc2[nH]cc(Cc3c[nH]c4ccc(OC)cc34)c2c1` [DMODIM, 5,5′-dimethoxy 3,3′-diindolyl methane], the extent of cleavage with LdTOP1LS is listed as about 56%. Also, the inhibition at 50 µM in test [1] was 79%.
For `c1ccc(-c2[nH]c3ccccc3c2Cc2c(-c3ccccc3)[nH]c3ccccc23)cc1` [DPDIM, 2,2′-diphenyl 3,3′-diindolyl methane], in that order: 67% and 98%.
For `Cc1[nH]c2ccccc2c1Cc1c(C)[nH]c2ccccc12` [DMDIM, 2,2′-dimethyl 3,3′-diindolyl methane], in that order: “approximately 61%” and 92%.
